The values that follow come from patent publication US7582803B2 (Amgen Inc., priority 2005, dated 2009).

T1 sequence (O14842 whole entry): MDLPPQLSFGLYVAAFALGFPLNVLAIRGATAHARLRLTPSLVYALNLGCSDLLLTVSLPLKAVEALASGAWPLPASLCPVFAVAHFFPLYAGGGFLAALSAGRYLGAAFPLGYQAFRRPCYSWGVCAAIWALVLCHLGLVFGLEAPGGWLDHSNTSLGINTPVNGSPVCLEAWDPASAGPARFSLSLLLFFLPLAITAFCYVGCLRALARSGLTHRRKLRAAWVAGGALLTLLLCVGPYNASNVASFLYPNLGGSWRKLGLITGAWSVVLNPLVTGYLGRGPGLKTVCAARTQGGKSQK

This test has as its target T1, human GPR40 (Homo sapiens, UniProt O14842).
T1 construct: expressed in transfected cells; host or cells: CHO cells
Briefly: Cell-based aequorin assay. Conditions: CHO cells stably transfected with GPR40 and aequorin; 0.01% HSA; aequorin luminescence; read-out: Relative EC50. On the procedure: Cell-based aequorin assays were employed to characterize the modulatory activity of compounds on the GPR40 signaling pathway. In an exemplary assay, CHO cells were stably transfected with both GPR40 and Aequorin (Euroscreen). Cells were detached from the tissue culture dish with 2 mL of trypsin (0.25% (w/v)). Trypsinization was halted with 28 mL of Hanks Buffered Salt Solution containing 20 mM Hepes (H/HBSS) and 0.01% fatty acid-free human serum albumin (HSA). Coelantrazine is added to 1 ug/mL, and the cells were incubated for 2 hours at room temperature. Compounds were dissolved in DMSO for preparation of 10 mM stock solutions. Compounds were diluted in H/HBSS containing 0.01% HSA. Serial dilutions of the test compounds were prepared to determine dose response.
Aequorin luminescence measurements were made using an EG&G Berthold 96-well luminometer, and the response was measured over a 20 second interval after cells and compounds were mixed. The maximum relative light units was plotted to determine dose response. The EC50 (effective concentration to reach 50% maximal response) was determined from the dose response plot.
Table 1 presents representative data (EC50 values) obtained for exemplary compounds of the invention for the relative activation of human GPR40. […]
For orientation: EC50 means the concentration at which the effect is half-maximal. For `CC#C[C@@H](CC(=O)O)c1ccc(OC2c3ccccc3CC2C)cc1` (mixture of isomers) [Example 21, (3S)-3-[4-(2-Methyl-indan-1-yloxy)-phenyl]-hex-4-ynoic acid], the EC50 was 10 to 100 nM.
The result for `Cc1ccc(C(CC(=O)O)c2ccc(OC3CCc4cc(Cl)ccc43)cc2)s1` (racemic) [Example 23, (+/−)-3-(4-(5-Chloro-2,3-dihydro-1H-inden-1-yloxy)phenyl)-3-(5-methylthiophen-2-yl)propanoic acid] reads 1000 to 10000 nM; that for `O=C(O)CC(c1ccc(OC2CCC(c3ccccc3)CC2)cc1)c1cccs1` (racemic) [Example 31, (+/−)-3-(4-(4-Phenylcyclohexyloxy)phenyl)-3-(thiophen-2-yl)propanoic acid], 1000 to 10000 nM.
Take `O=C(O)CC(c1ccc(OC2Cc3ccccc3C2)cc1)c1ncco1` (racemic) [Example 32, (+/−)-3-(4-(2,3-Dihydro-1H-inden-2-yloxy)phenyl)3-(oxazol-2-yl)propanoic acid]: the EC50 lay within 1000 to 10000 nM.
The result for `O=C(O)CC(c1ccc(OC2CCc3cc(Cl)ccc32)cc1)c1ncco1` (racemic) [Example 33, (+/−)-3-(4-(5-Chloro-2,3-dihydro-1H-inden-1-yloxy)phenyl)-3-(oxazol-2-yl)propanoic acid] reads 1000 to 10000 nM; that for `Cc1cnc(C(CC(=O)O)c2ccc(OC3CCc4cc(Cl)ccc43)cc2)o1` (racemic) [Example 34, (+/−)-3-(4-(5-Chloro-2,3-dihydro-1H-inden-1-yloxy)phenyl)-3-(5-methyloxazol-2-yl)propanoic acid], 1000 to 10000 nM; that for `O=C(O)CC(c1ccc(OC2Cc3ccccc3C2)cc1)c1cc(F)cc(F)c1` (racemic) [Example 36, (+/−)3-(3,5-Difluorophenyl)-3-(4-(2,3-dihydro-1H-inden-2-yloxy)phenyl)propanoic acid], 100 to 1000 nM.
The result for `O=C(O)CC(c1ccc(OC2Cc3ccccc3C2)cc1)c1cc(F)ccc1F` (racemic) [Example 37, (+/−)3-(2,5-Difluorophenyl)-3-(4-(2,3-dihydro-1H-inden-2-yloxy)phenyl)propanoic acid] reads 100 to 1000 nM; that for `O=C(O)CC(c1ccc(OC2Cc3ccccc3C2)cc1)c1ccc(F)cc1F` (racemic) [Example 38, (+/−)3-(2,4-Difluorophenyl)-3-(4-(2,3-dihydro-1H-inden-2-yloxy)phenyl)propanoic acid], 100 to 1000 nM.
The result for `O=C(O)CC(c1ccc(OC2Cc3ccccc3C2)cc1)c1c(F)cccc1F` (racemic) [Example 39, (+/−)3-(2,6-Difluorophenyl)-3-(4-(2,3-dihydro-1H-inden-2-yloxy)phenyl)propanoic acid] reads 1000 to 10000 nM; that for `O=C(O)CC(c1ccccc1)c1ccc(OC2CCc3cc(Br)ccc32)cc1` (racemic) [Example 41, (+/−)-3-[4-(5-Bromo-indan-1-yloxy)-phenyl]-3-phenyl-propionic acid], 100 to 1000 nM.
As to `O=C(O)CC(c1ccc(F)cc1)c1ccc(OC2CCc3cc(Br)ccc32)cc1` (racemic) [Example 42, (+/−)-3-[4-(5-Bromo-indan-1-yloxy)-phenyl]-3-(4-fluoro-phenyl)-propionic acid], the EC50 fell in the range of 100 to 1000 nM.
The result for `O=C(O)CC(c1ccc(OC2Cc3ccccc3C2)cc1)c1cccs1` (racemic) [Example 48, (+/−)-3-(4-(2,3-Dihydro-1H-inden-2-yloxy)phenyl)-3-(thiophen-2-yl)propanoic acid] reads 100 to 1000 nM; that for `O=C(O)CC(c1ccc(OC2CCCCc3ccccc32)cc1)c1cccs1` (racemic) [Example 49, (+/−)3-(4-(6,7,8,9-Tetrahydro-5H-benzo[7]annulen-5-yloxy)phenyl)-3-(thiophen-2-yl)propanoic acid], 1000 to 10000 nM.
The result for `O=C(O)CC1CCCc2cc(OC3Cc4ccccc4C3)ccc21` (racemic) [Example 53, (R/S)-2-(6-(2,3-Dihydro-1H-inden-2-yloxy)-1,2,3,4-tetrahydronaphthalen-1-yl)acetic acid] reads 100 to 1000 nM; that for `CC1(C)CCC(C)(C)c2cc(COc3ccc(C(CC(=O)O)c4cncnc4)cc3)ccc21` (racemic) [Example 79, (R/S)-3-Pyrimidin-5-yl-3-[4-(5,5,8,8-tetramethyl-5,6,7,8-tetrahydro-naphthalen-2-ylmethoxy)-phenyl]-propionic acid], 1000 to 10000 nM; that for `CC#C[C@@H](CC(=O)O)c1ccc(O[C@@H]2CCc3cc(Br)ccc32)cc1` (single isomer, unassigned) [Example 44], 10 to 100 nM.
With `CC#C[C@@H](CC(=O)O)c1ccc(OC2CCc3cc(-c4ccc(C(F)(F)F)cc4)ccc32)cc1` (some centres unmarked) [Example 1], the EC50 was in the range of 10 to 100 nM.
The result for `CC#C[C@@H](CC(=O)O)c1ccc(OC2CCc3cc(Br)ccc32)cc1` (stereo partly drawn) [Example 2, (3S)-3-[4-(5-Bromo-indan-1-yloxy)-phenyl]-hex-4-ynoic acid] reads 10 to 100 nM; that for `CC#C[C@@H](CC(=O)O)c1ccc(OC2CCc3cc(-c4cc(C)ccc4OCCCC)ccc32)cc1` (stereo partly drawn) [Example 3, (3S)-3-(4-(5-(2-Butoxy-5-methylphenyl)-2,3-dihydro-1H-inden-1-yloxy)phenyl)hex-4-ynoic acid], 10 to 100 nM.
The result for `CC#C[C@@H](CC(=O)O)c1ccc(OC2CCc3c(Br)cccc32)cc1` (stereo partly drawn) [Example 5, (3S)-3-[4-(4-Bromo-indan-1-yloxy)-phenyl]-hex-4-ynoic acid] reads 10 to 100 nM; that for `CC#C[C@@H](CC(=O)O)c1ccc(OC2CCc3c(-c4ccc(OC(F)(F)F)cc4)cccc32)cc1` (stereo partly drawn) [Example 6, (3S)-3-{4-[4-(4-Trifluoromethoxy-phenyl)-indan-1-yloxy]-phenyl}-hex-4-ynoic acid], 10 to 100 nM; that for `CC#C[C@@H](CC(=O)O)c1ccc(OC2CCc3c(-c4ccc(C(F)(F)F)cc4)cccc32)cc1` (some centres unmarked) [Example 7], 10 to 100 nM.
As to `CC#C[C@@H](CC(=O)O)c1ccc(OC2CCc3c(-c4cc(C)ccc4OCCCC)cccc32)cc1` (stereo partly drawn) [Example 8, (3S)-3-{4-[4-(2-Butoxy-5-methyl-phenyl)-indan-1-yloxy]-phenyl}-hex-4-ynoic acid], the half-maximal effective concentration (EC50) was in the range of 10 to 100 nM.
The result for `CC#C[C@@H](CC(=O)O)c1ccc(OC2CCc3ccc(-c4ccc(C(F)(F)F)cc4)cc32)cc1` (stereo partly drawn) [Example 11, (3S)-3-(4-(6-(4-(trifluoromethyl)phenyl)-2,3-dihydro-1H-inden-1-yloxy)phenyl)hex-4-ynoic acid] reads 10 to 100 nM.
The result for `CC#C[C@@H](CC(=O)O)c1ccc(OC2CCc3ccc(-c4cc(C)ccc4OCCCC)cc32)cc1` (stereo partly drawn) [Example 12, (3S)-3-{4-[6-(2-Butoxy-5-methyl-phenyl)-indan-1-yloxy]-phenyl}-hex-4-ynoic acid] reads 10 to 100 nM; that for `CC#C[C@@H](CC(=O)O)c1ccc(OC2CCc3cc(F)ccc32)cc1` (stereo partly drawn) [Example 14, (3S)-3-(4-(5-Fluoro-2,3-dihydro-1H-inden-1-yloxy)phenyl)hex-4-ynoic acid], 10 to 100 nM.
The result for `CC#C[C@@H](CC(=O)O)c1ccc(OC2CCc3cc(Cl)ccc32)cc1` (stereo partly drawn) [Example 15, (3S)-3-[4-(5-Chloro-indan-1-yloxy)-phenyl]-hex-4-ynoic acid] reads less than 10 nM.
For `CC#C[C@@H](CC(=O)O)c1ccc(OC2CCc3c(C)cccc32)cc1` (stereo partly drawn) [Example 16, (3S) 3-[4-(4-Methyl-indan-1-yloxy)-phenyl]-hex-4-ynoic acid], the EC50 lay in the range of 10 to 100 nM.
The result for `CC#C[C@@H](CC(=O)O)c1ccc(OC2CCc3ccc(OC)cc32)cc1` (stereo partly drawn) [Example 17, (3S)-3-[4-(6-Methoxy-indan-1-yloxy)-phenyl]-hex-4-ynoic acid] reads 10 to 100 nM.
The result for `CC#C[C@@H](CC(=O)O)c1ccc(OC2CCc3cc(OC)ccc32)cc1` (stereo partly drawn) [Example 18, (3S)-3-[4-(5-Methoxy-indan-1-yloxy)-phenyl]-hex-4-ynoic acid] reads 10 to 100 nM.
The result for `CC#C[C@@H](CC(=O)O)c1ccc(OC2CCc3c2ccc(OC)c3OC)cc1` (stereo partly drawn) [Example 19, (3S)-3-[4-(4,5-Dimethoxy-indan-1-yloxy)-phenyl]-hex-4-ynoic acid] reads 1000 to 10000 nM; that for `CC#C[C@@H](CC(=O)O)c1ccc(OC2CCc3c(OC)ccc(OC)c32)cc1` (stereo partly drawn) [Example 20, (3S)-3-[4-(4,7-Dimethoxy-indan-1-yloxy)-phenyl]-hex-4-ynoic acid], 100 to 1000 nM.
With `CC#C[C@@H](CC(=O)O)c1ccc(OC2CCCc3ccccc32)cc1` (stereo partly drawn) [Example 24, (3S)-3-[4-(1,2,3,4-Tetrahydro-naphthalen-1-yloxy)-phenyl]-hex-4-ynoic acid], the EC50 lay in the range of 10 to 100 nM.
The result for `CC#C[C@@H](CC(=O)O)c1ccc(OC2CCCc3c(Br)cccc32)cc1` (stereo partly drawn) [Example 25, (3S)-3-[4-(5-Bromo-1,2,3,4-tetrahydro-naphthalen-1-yloxy)-phenyl]-hex-4-ynoic acid] reads 10 to 100 nM; that for `CC#C[C@@H](CC(=O)O)c1ccc(OC2CCc3ccccc3C2)cc1` (stereo partly drawn) [Example 26, (3S)-3-[4-(1,2,3,4-Tetrahydro-naphthalen-2-yloxy)-phenyl]-hex-4-ynoic acid], 100 to 1000 nM.
In the case of `CC#C[C@@H](CC(=O)O)c1ccc(OC2Cc3ccccc3C2)cc1` [Example 27, (3S)-3-[4-(Indan-2-yloxy)-phenyl]-hex-4-ynoic acid], the EC50 lay in the range of 10 to 100 nM.
The result for `CC#CC(CC(=O)O)c1ccc(OC2CCC(c3ccccc3)CC2)cc1` [Example 29, (R,S)-3-(4-(4-phenylcyclohexyloxy)phenyl)hex-4-ynoic acid] reads 100 to 1000 nM.
